The nature of data set [1]: in vitro. The note with it: human.
Data set [2] deals with HL-60. As to the kind of experiment: HL-60 differentiation potency. The format is cell-based. The note with it: Homo sapiens.

pEC50, pIC50: −log10 of the molar value. A value given as a limit tells only on which side of the number the result lay.

The pIC50 is −log10 of the IC50, conventionally taken in molar units. Read a high pIC50 as a small IC50. As usually defined, the pEC50 is −log10 of the EC50, conventionally taken in molar units. The low end stands for a high EC50, the high end for a low EC50.

In the case of `COC(=O)[C@@H]1CCN(CC[C@H]2O[C@@H]3O[C@@]4(C)CC[C@H]5[C@H](C)CC[C@@H]([C@H]2C)[C@@]35OO4)C1` [Compound 70, methyl (R)-1-(2-((3R,5aS,6R,8aS, 9R,10R,12R, 12aR)-3,6,9-trimethyldeca-hydro-12H-3,12-epoxy[1,2]dioxepino[4,3-i]isochromen-10-yl)ethyl) pyrrolidine-3-carboxylate], in data set [1], the pIC50 is under 4.70. The pEC50 in data set [2] is under 4.70.

As to `C[C@H]1[C@H](N2CCC(C(=O)NC3COC3)CC2)O[C@@H]2O[C@@]3(C)CC[C@H]4[C@H](C)CC[C@@H]1[C@@]24OO3` [Compound 60, N-(oxetan-3-yl)-1-((3R,5aS, 6R,8aS,9R,10R, 12R,12aR)-3,6,9-trimethyldeca-hydro-12H-3,12-epoxy[1,2]dioxepino[4,3-i]isochromen-10-yl)piperidine-4-carboxamide], the pIC50 in data set [1] was 4.93. The same compound had a pEC50 in data set [2] of 4.95.

For `C[C@H]1[C@@H](OCc2ccc(S(N)(=O)=O)cc2)O[C@@H]2O[C@@]3(C)CC[C@H]4[C@H](C)CC[C@@H]1[C@@]24OO3` [Compound 18, 4-((((3R,5aS,6R, 8aS,9R,10S,12R, 12aR)-3,6,9-trimethyldeca-hydro-12H-3,12-epoxy[1,2]dioxepino[4,3-i]isochromen-10-yl)oxy)methyl) benzene-sulfonamide], in data set [1], the pIC50 was 5.65. This compound showed a pEC50 in data set [2] of 7.00.

On to `C[C@H]1[C@H](OCc2ccc(C(=O)O)c(Cl)c2)O[C@@H]2O[C@@]3(C)CC[C@H]4[C@H](C)CC[C@@H]1[C@@]24OO3` [Compound 92, 2-chloro-4-((((3R,5aS,6R, 8aS,9R,10R,12R, 12aR)-3,6,9-trimethyldeca-hydro-12H-3,12-epoxy[1,2]dioxepino[4,3-i]isochromen-10-yl)oxy)methyl) benzoic acid], for which the pIC50 in data set [1] was under 4.70. This compound gave a pEC50 in data set [2] of under 4.70.

`C[C@H]1[C@@H](Oc2ccc(C3CC(C(=O)O)C3)cc2)O[C@@H]2O[C@@]3(C)CC[C@H]4[C@H](C)CC[C@@H]1[C@@]24OO3` (stereo partly drawn) [Compound 175, 3-(4-(((3R,5aS,6R,8aS, 9R,10S,12R, 12aR)-3,6,9-trimethyldeca-hydro-12H-3,12-epoxy[1,2]dioxepino[4,3-i]isochromen-10-yl)oxy)phenyl) cyclobutane-1-carboxylic acid] had a pIC50 in data set [1] of 5.82. The pEC50 in data set [2] is 7.24.

As to `C[C@H]1[C@@H](OC[C@H]2CC[C@H](C(=O)O)CC2)O[C@@H]2O[C@@]3(C)CC[C@H]4[C@H](C)CC[C@@H]1[C@@]24OO3` [Compound 43, (1S,4r)-4-((((3R,5aS,6R, 8aS,9R,10S,12R, 12aR)-3,6,9-trimethyldeca-hydro-12H-3,12-epoxy[1,2]dioxepino[4,3-i]isochromen-10-yl)oxy)methyl) cyclohexane-1-carboxylic acid], the pIC50 in data set [1] is under 4.70. Further, the pEC50 in data set [2] is 6.05.

In data set [1], `Cc1cc(CO[C@@H]2O[C@@H]3O[C@@]4(C)CC[C@H]5[C@H](C)CC[C@@H]([C@H]2C)[C@@]35OO4)ccc1C(=O)O` [Compound 51, 2-methyl-4-((((3R,5aS,6R,8aS, 9R,10R,12R, 12aR)-3,6,9-trimethyldeca-hydro-12H-3,12-epoxy[1,2]dioxepino[4,3-i]isochromen-10-yl)oxy)methyl) benzoic acid] gave a pIC50 of under 4.70. The pEC50 in data set [2] is 5.62.

Regarding `C[C@H]1[C@@H](OC[C@H]2CC[C@@H](CO)CC2)O[C@@H]2O[C@@]3(C)CC[C@H]4[C@H](C)CC[C@@H]1[C@@]24OO3` [Compound 156, ((1R,4s)-4-((((3R,5aS,6R, 8aS,9R,10S,12R, 12aR)-3,6,9-trimethyldeca-hydro-12H-3,12-epoxy[1,2]dioxepino[4,3-i]isochromen-10-yl)oxy)methyl)cyclohexyl) methanol], in data set [1], the pIC50 is 6.57. Also, in data set [2], the pEC50 is 7.12.

In the case of `C[C@H]1[C@@H](Oc2ccc(O[C@H]3C[C@@H](C(=O)O)C3)cc2)O[C@@H]2O[C@@]3(C)CC[C@H]4[C@H](C)CC[C@@H]1[C@@]24OO3` [Compound 182, (1R,3s)-3-(4-(((3R,5aS,6R,8aS, 9R,10S,12R, 12aR)-3,6,9-trimethyldeca-hydro-12H-3,12-epoxy[1,2]dioxepino[4,3-i]isochromen-10-yl)oxy)phenoxy) cyclobutane-1-carboxylic acid], in data set [1] (HL-60 cells), the pIC50 is 6.00. In addition, the pEC50 in data set [2] is 7.62.

In the case of `C[C@H]1[C@H](OC[C@H]2CC[C@H](C(=O)O)CC2)O[C@@H]2O[C@@]3(C)CC[C@H]4[C@H](C)CC[C@@H]1[C@@]24OO3` [Compound 40, (1R,4r)-4-((((3R,5aS,6R,8aS, 9R,10R,12R, 12aR)-3,6,9-trimethyldeca-hydro-12H-3,12-epoxy[1,2]dioxepino[4,3-i]isochromen-10-yl)oxy)methyl) cyclohexane-1-carboxylic acid], the negative logarithm of the IC50 (pIC50) in data set [1] was under 4.70. The same compound had a pEC50 in data set [2] of 6.17.

`C[C@H]1[C@@H](Oc2ccc(C(=O)O)c(F)c2)O[C@H]2O[C@@]3(C)CC[C@H]4[C@H](C)CC[C@@H]1[C@@]24OO3` [Compound 25, 2-fluoro-4-(((3R,5aS,6R,8aS, 9R,10S,12S, 12aR)-3,6,9-trimethyldeca-hydro-12H-3,12-epoxy[1,2]dioxepino[4,3-i]isochromen-10-yl)oxy)benzoic acid] showed a pIC50 in data set [1] of under 4.70. For the same compound, the pEC50 in data set [2] was 6.66.

`C[C@H]1[C@@H](OCC(=O)N2CCC(C(=O)O)CC2)O[C@@H]2O[C@@]3(C)CC[C@H]4[C@H](C)CC[C@@H]1[C@@]24OO3` [Compound 148, 1-(2-(((3R,5aS,6R,8aS, 9R,10S,12R, 12aR)-3,6,9-trimethyldeca-hydro-12H-3,12-epoxy[1,2]dioxepino[4,3-i]isochromen-10-yl)oxy)acetyl) piperidine-4-carboxylic acid] gave a pIC50 in data set [1] of under 4.70. Also, the pEC50 in data set [2] is 5.16.

Take `C[C@H]1[C@@H](OCc2ccc(C(N)=O)cc2)O[C@@H]2O[C@@]3(C)CC[C@H]4[C@H](C)CC[C@@H]1[C@@]24OO3` [Compound 30, 4-((((3R,5aS, 6R,8aS,9R,10S, 12R,12aR)-3,6,9-trimethyldeca-hydro-12H-3,12-epoxy[1,2]dioxepino[4,3-i]isochromen-10-yl)oxy)methyl) benzamide]: the pIC50 in data set [1] is 5.45. The compound also gave a pEC50 in data set [2] of 6.52.

`C[C@H]1[C@@H](OC(C)(C)[C@H]2CC[C@@H](C(=O)O)CC2)O[C@@H]2O[C@@]3(C)CC[C@H]4[C@H](C)CC[C@@H]1[C@@]24OO3` [Compound 131, (1R,4s)-4-(2-(((3R,5aS,6R,8aS, 9R,10S,12R, 12aR)-3,6,9-trimethyldeca-hydro-12H-3,12-epoxy[1,2]dioxepino[4,3-i]isochromen-10-yl)oxy)propan-2-yl)cyclohexane-1-carboxylic acid]: the negative logarithm of the IC50 (pIC50) in data set [1] was 4.78. In data set [2], the pEC50 is 6.80.

As for `C[C@H]1[C@@H](OCC(C(=O)O)c2ccccc2)O[C@@H]2O[C@@]3(C)CC[C@H]4[C@H](C)CC[C@@H]1[C@@]24OO3` (stereo partly drawn) [Compound 172, 2-phenyl-3-(((3R,5aS,6R,8aS, 9R,10S,12R, 12aR)-3,6,9-trimethyldeca-hydro-12H-3,12-epoxy[1,2]dioxepino[4,3-i]isochromen-10-yl)oxy) propanic acid], the pIC50 in data set [1] is under 4.70. In data set [2], the pEC50 was 6.56.

For `C[C@H]1[C@@H](Oc2ccc(C(C)(C)C(=O)O)cc2)O[C@@H]2O[C@@]3(C)CC[C@H]4[C@H](C)CC[C@@H]1[C@@]24OO3` [Compound 126, 2-methyl-2-(4-(((3R,5aS,6R,8aS, 9R,10S,12R, 12aR)-3,6,9-trimethyldeca-hydro-12H-3,12-epoxy[1,2]dioxepino[4,3-i]isochromen-10-yl)oxy)phenyl) propanoic acid], the pIC50 in data set [1] was 5.26. The compound also gave a pEC50 in data set [2] of 7.81.

In turn, `C[C@H]1[C@H](Oc2ccc(CC(=O)O)cc2)O[C@@H]2O[C@@]3(C)CC[C@H]4[C@H](C)CC[C@@H]1[C@@]24OO3` [Compound 12, 2-(4-(((3R,5aS, 6R,8aS,9R,10R, 12R,12aR)-3,6,9-trimethyldeca-hydro-12H-3,12-epoxy[1,2]dioxepino[4,3-i]isochromen-10-yl)oxy)phenyl) acetic acid] gave a pIC50 in data set [1] of under 4.70. The compound further gave a pEC50 in data set [2] of 7.03.

For `C[C@H]1[C@@H](Oc2ccc(C(=O)N[C@H](C(=O)O)C(C)(C)C)cc2)O[C@@H]2O[C@@]3(C)CC[C@H]4[C@H](C)CC[C@@H]1[C@@]24OO3` [Compound 184, (S)-3,3-dimethyl-2-(4-(((3R,5aS,6R,8aS, 9R,10S,12R, 12aR)-3,6,9-trimethyldeca-hydro-12H-3,12-epoxy[1,2]dioxepino[4,3-i]isochromen-10-yl)oxy)benzamido) butanoic acid], the pIC50 in data set [1] is 6.10. Besides, in data set [2], the pEC50 is 7.77.

In data set [1], `C[C@H]1[C@@H](Oc2ccc(CC(=O)O)cc2F)O[C@@H]2O[C@@]3(C)CC[C@H]4[C@H](C)CC[C@@H]1[C@@]24OO3` [Compound 9, 2-(3-fluoro-4-(((3R,5aS,6R, 8aS,9R,10S,12R, 12aR)-3,6,9-trimethyldeca-hydro-12H-3,12-epoxy[1,2]dioxepino[4,3-i]isochromen-10-yl)oxy)phenyl) acetic acid] had a negative-log IC50 (pIC50) of under 4.70. The compound also gave a pEC50 in data set [2] of 7.23.

On to `C[C@H]1[C@H](NCc2cnn(C)c2)O[C@@H]2O[C@@]3(C)CC[C@H]4[C@H](C)CC[C@@H]1[C@@]24OO3` [Compound 46, (3R,5aS,6R,8aS, 9R,10R,12R, 12aR)-3,6,9-trimethyl-N-((1-methyl-1H-pyrazol-4-yl)methyl)decahydro-12H-3,12-epoxy[1,2] dioxepino[4,3-i] isochromen-10-amine], for which the pIC50 in data set [1] is 5.36. In data set [2], this compound had a pEC50 of 5.84.

The compound `C[C@H]1[C@@H](OC[C@H]2C[C@@H](C(=O)O)C[C@@H](C(=O)O)C2)O[C@@H]2O[C@@]3(C)CC[C@H]4[C@H](C)CC[C@@H]1[C@@]24OO3` [Compound 147, (1R,3S,5r)-5-((((3R,5aS,6R,8aS, 9R,10S,12R, 12aR)-3,6,9-trimethyldeca-hydro-12H-3,12-epoxy[1,2]dioxepino[4,3-i]isochromen-10-yl)oxy)methyl) cyclohexane-1,3-dicarboxylic acid] gave a negative logarithm of the IC50 (pIC50) in data set [1] of under 4.70. Further, the pEC50 in data set [2] was under 4.70.
